The values that follow come from patent US11111251B2, “Positive allosteric modulators of the muscarinic acetylcholine receptor M1” (Vanderbilt University, priority 2016, dated 2021).

SMILES strings stand for the structures. pEC50: −log10 of the molar value. Where two headings read alike, the source gives them in different places.

In the assay the target is T1, human mAChR M1 (Homo sapiens, UniProt P11229).
T1 sequence (P11229 1-460): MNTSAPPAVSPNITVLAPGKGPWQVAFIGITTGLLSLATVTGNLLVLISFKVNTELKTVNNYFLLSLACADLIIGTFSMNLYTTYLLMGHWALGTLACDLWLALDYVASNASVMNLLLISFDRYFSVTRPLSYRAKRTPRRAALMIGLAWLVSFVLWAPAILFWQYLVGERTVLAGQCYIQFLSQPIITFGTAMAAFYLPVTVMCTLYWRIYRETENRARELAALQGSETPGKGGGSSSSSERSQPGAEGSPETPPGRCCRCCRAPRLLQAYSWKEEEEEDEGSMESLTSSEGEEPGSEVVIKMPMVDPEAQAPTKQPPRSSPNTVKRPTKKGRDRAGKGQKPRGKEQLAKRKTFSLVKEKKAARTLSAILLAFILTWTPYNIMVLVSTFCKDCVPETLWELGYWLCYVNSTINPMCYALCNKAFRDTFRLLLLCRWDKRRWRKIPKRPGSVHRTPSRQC
Nature of the assay: mAChR M1 cell-based functional assay: calcium mobilization, positive allosteric modulator mode (increase in EC20 acetylcholine response). Particulars: for Emax: read-out: Human M1 Emax (%). Summed up: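 Calcium-flux assay in CHO-K1 cells stably expressing human M1, loaded with Fluo-4 AM (50 min, 37 °C) and read at 1 Hz. Compound (11-point, 1:3 series) was added at 4 s, EC20 acetylcholine at 144 s and EC80 at 230 s. PAM activity is the concentration-dependent rise in the EC20 response, fitted with a four-parameter logistic.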

[1] abbreviates: Table 2, human M1, read-out: Human M1 EC50.

By pEC50 is commonly meant the EC50 on a negative log10 scale, so that one unit is a factor of ten. The term Emax denotes the maximal effect, on the per cent scale that the assay sets. On to `O=C(NC1CC2(COC2)C1)c1cc(Cc2ccc(-n3cccn3)cc2)c2sccc2n1` [Compound 275, N-(2-oxaspiro[3.3]heptan-6-yl)-7-[(4-pyrazol-1-ylphenyl)methyl]thieno[3,2-b]pyridine-5-carboxamide], for which the pEC50 under setting [1] was 7.37. For the same compound, for the setting “Table 2, human M1”, the Emax turned out to be 69.9%.
For `CN1CCCC(NC(=O)c2cc(Cc3ccc(-c4cscn4)cc3)c3sccc3n2)C1` (centres unmarked) [Compound 210, N-(1-methyl-3-piperidyl)-7-[(4-thiazol-4-ylphenyl)methyl]thieno[3,2-b]pyridine-5-carboxamide], the pEC50 under setting [1] was 5.63. Further, the Emax (Table 2, human M1) was 82.2%.
For `Cn1cc(-c2ccc(Cc3cc(C(=O)N[C@H]4CCC[C@@H]4O)nc4ccsc34)c(F)c2)cn1` [Compound 56, 7-[[2-fluoro-4-(1-methylpyrazol-4-yl)phenyl]methyl]-N-[(1S,2S)-2-hydroxycyclopentyl]thieno[3,2-b]pyridine-5-carboxamide], the negative logarithm of the EC50 (pEC50) under setting [1] is 5.49. Further, the Emax (Table 2, human M1) was 51%.
Consider `Cc1nc(-c2ccc(Cc3cc(C(=O)NC4CC5(COC5)C4)nc4ccsc34)cc2)co1` [Compound 158, 7-[[4-(2-methyloxazol-4-yl)phenyl]methyl]-N-(2-oxaspiro[3.3]heptan-6-yl)thieno[3,2-b]pyridine-5-carboxamide], for which, under setting [1], the pEC50 was 6.46. Besides, the maximum response (Emax) (Table 2, human M1) came out at 89.7%.
Regarding `CO[C@H]1CCCC[C@@H]1NC(=O)c1cc(Cc2ccc(C)nc2)c2sccc2n1` [Compound 48, N-[(1S,2S)-2-methoxycyclohexyl]-7-[(6-methyl-3-pyridyl)methyl]thieno[3,2-b]pyridine-5-carboxamide], the pEC50 (Table 1, mAChR M1 cell-based functional assay, PAM mode, species not given, read-out: EC50) was 5.24.
Turning to `Cc1csc2c(Cc3ccc(-n4cccn4)cc3)cc(C(=O)NCC3CCOCC3)nc12` [Compound 318, 3-methyl-7-[(4-pyrazol-1-ylphenyl)methyl]-N-(tetrahydropyran-4-ylmethyl)thieno[3,2-b]pyridine-5-carboxamide], the pEC50 under setting [1] was 5.85. Moreover, the Emax (Table 2, human M1) amounted to 72.2%.
For `CC1(C)COCCC1NC(=O)c1cc(Cc2ccc(-c3cncs3)cc2)c2sccc2n1` (centres unmarked) [Compound 390, N-(3,3-dimethyltetrahydropyran-4-yl)-7-[(4-thiazol-5-ylphenyl)methyl]thieno[3,2-b]pyridine-5-carboxamide], in that order: 6.03 and 66.3%.
Turning to `Cc1ccc(Cc2cc(C(=O)NC3C(=O)Nc4ccccc43)nc3ccsc23)cn1` (centres unmarked) [Compound 68, 7-[(6-methyl-3-pyridyl)methyl]-N-(2-oxoindolin-3-yl)thieno[3,2-b]pyridine-5-carboxamide], under setting [1], the negative logarithm of the EC50 (pEC50) was 5.01. In addition, the Emax (Table 2, human M1) worked out at 22.8%.
Taken in the same sequence, the figures for `Cn1ccc2nc(C(=O)NC3CC4(COC4)C3)cc(Cc3ccc(-n4cccn4)cc3)c21` [Compound 449, 1-Methyl-N-(2-oxaspiro[3.3]heptan-6-yl)-7-[(4-pyrazol-1-ylphenyl)methyl]pyrrolo[3,2-b]pyridine-5-carboxamide] were 6.80 and 73.1%.
In the case of `Cc1ccc(Cc2cc(C(=O)NC3CCCNC3=O)nc3c(C)csc23)cn1` (centres unmarked) [Compound 110, 3-methyl-7-[(6-methyl-3-pyridyl)methyl]-N-(2-oxo-3-piperidyl)thieno[3,2-b]pyridine-5-carboxamide], the negative-log EC50 (pEC50) under setting [1] was 5.30. Moreover, the maximal effect (Emax) (Table 2, human M1) was 71%.
Regarding `Cn1ccc2nc(C(=O)NC3CC4(COC4)C3)cc(Cc3ccc(-c4nccs4)cc3)c21` [Compound 481, 1-methyl-N-(2-oxaspiro[3.3]heptan-6-yl)-7-[(4-thiazol-2-ylphenyl)methyl]pyrrolo[3,2-b]pyridine-5-carboxamide], the pEC50 under setting [1] is 6.41. Besides, the Emax (Table 2, human M1) was found to be 57%.
On to `Cc1csc2c(Cc3ccc(-n4cccn4)cc3)cc(C(=O)NCC3CCCCO3)nc12` (centres unmarked) [Compound 320, 3-methyl-7-[(4-pyrazol-1-ylphenyl)methyl]-N-(tetrahydropyran-2-ylmethyl)thieno[3,2-b]pyridine-5-carboxamide], for which, under setting [1], the negative logarithm of the EC50 (pEC50) was 5.40. Also, the Emax (Table 2, human M1) amounted to 60.7%.
For `Cc1ccc(Cc2cc(C(=O)NC3CC(F)(F)C3)nc3ccsc23)cn1` [Compound 260, N-(3,3-difluorocyclobutyl)-7-[(6-methyl-3-pyridyl)methyl]thieno[3,2-b]pyridine-5-carboxamide], in that order: 5.27 and 58.4%.
For `Cn1cc(-c2ccc(Cc3cc(C(=O)NCC4CCO4)nc4ccsc34)cn2)cn1` (centres unmarked) [Compound 338, 7-[[6-(1-methylpyrazol-4-yl)-3-pyridyl]methyl]-N-(oxetan-2-ylmethyl)thieno[3,2-b]pyridine-5-carboxamide], in that order: 7.07 and 93.3%.
Taken in the same sequence, the figures for `CN1CCCC(NC(=O)c2cc(Cc3ccc(-n4cccn4)cc3)c3sccc3n2)C1` (centres unmarked) [Compound 442, N-(1-methyl-3-piperidyl)-7-[(4-pyrazol-1-ylphenyl)methyl]thieno[3,2-b]pyridine-5-carboxamide] were 5.83 and 71.8%.
For `O=C(NC1COC1)c1cc(Cc2ccc(-n3cccn3)cc2)c2sccc2n1` [Compound 279, N-(oxetan-3-yl)-7-[(4-pyrazol-1-ylphenyl)methyl]thieno[3,2-b]pyridine-5-carboxamide], under setting [1], the pEC50 was 5.98. For the same compound, the Emax (Table 2, human M1) stood at 68.7%.
For the compound `O=C(N[C@@H]1COCC[C@H]1O)c1cc(Cc2ccc(-n3cccn3)cc2)c2sccc2n1` [Compound 75, N-[(3R,4R)-4-hydroxytetrahydropyran-3-yl]-7-[(4-pyrazol-1-ylphenyl)methyl]thieno[3,2-b]pyridine-5-carboxamide], under setting [1], the pEC50 was 7.66. The maximal effect (Emax) (Table 2, human M1) was determined as 90.1%.
Taken in the same sequence, the figures for `N#CC1(NC(=O)c2cc(Cc3ccc(-n4cccn4)cc3)c3sccc3n2)CC1` [Compound 282, N-(1-cyanocyclopropyl)-7-[(4-pyrazol-1-ylphenyl)methyl]thieno[3,2-b]pyridine-5-carboxamide] were 6.22 and 40%.
For `Cn1ccc(-c2ccc(Cc3cc(C(=O)N[C@@H]4CCCOC4)nc4ccsc34)cn2)n1` [Compound 423], in that order: 6.20 and 70.6%.
Taken in the same sequence, the figures for `O=C(NC1C2CC3C[C@H]1CC(O)(C3)C2)c1cc(Cc2ccc(C(F)(F)F)nc2)c2sccc2n1` (stereo partly drawn) [Compound 96, N-[(1S)-5-hydroxy-2-adamantyl]-7-[[6-(trifluoromethyl)-3-pyridyl]methyl]thieno[3,2-b]pyridine-5-carboxamide] were under 5.00 and 43.6%.
Take `Cc1cc2nc(C(=O)N[C@H]3CCC[C@@H]3O)cc(Cc3ccc(-n4cccn4)cc3)c2s1` [Compound 236, N-[(1S,2S)-2-hydroxycyclopentyl]-2-methyl-7-[(4-pyrazol-1-ylphenyl)methyl]thieno[3,2-b]pyridine-5-carboxamide]: under setting [1], the pEC50 was 5.57. Besides, for the setting “Table 2, human M1”, the Emax was determined as 78.2%.
Regarding `O=C(c1cc(Cc2ccc(-n3cccn3)cc2)c2sccc2n1)N1CCN(CCO)CC1` [Compound 84, [4-(2-hydroxyethyl)piperazin-1-yl]-[7-[(4-pyrazol-1-ylphenyl)methyl]thieno[3,2-b]pyridin-5-yl]methanone], the pEC50 under setting [1] was under 5.00. Also, the Emax (Table 2, human M1) came to 24.4%.
For `Cn1cc(-c2ccc(Cc3cc(C(=O)N[C@H]4CCOC[C@@H]4O)nc4ccn(C)c34)cn2)cn1` [Compound 468, N-[(3R,4S)-3-hydroxytetrahydropyran-4-yl]-1-methyl-7-[[6-(1-methylpyrazol-4-yl)-3-pyridyl]methyl]pyrrolo[3,2-b]pyridine-5-carboxamide], in that order: 7.93 and 70%.
Taken in the same sequence, the figures for `Cc1nn(C)c(C)c1-c1ccc(Cc2cc(C(=O)NC3CC4(COC4)C3)nc3ccsc23)cc1` [Compound 241, N-(2-oxaspiro[3.3]heptan-6-yl)-7-[[4-(1,3,5-trimethylpyrazol-4-yl)phenyl]methyl]thieno[3,2-b]pyridine-5-carboxamide] were under 5.00 and 18.8%.
As for `CN1CC(NC(=O)c2cc(Cc3ccc(-n4cccn4)cc3)c3sccc3n2)C1` [Compound 435, N-(1-methylazetidin-3-yl)-7-[(4-pyrazol-1-ylphenyl)methyl]thieno[3,2-b]pyridine-5-carboxamide], the negative-log EC50 (pEC50) under setting [1] was 5.64. Also, the maximum response (Emax) (Table 2, human M1) was 76.9%.
Taken in the same sequence, the figures for `Cn1cc(-c2ccc(Cc3cc(C(=O)NC4CCOC(C)(C)C4)nc4ccsc34)cn2)cn1` (centres unmarked) [Compound 336, N-(2,2-dimethyltetrahydropyran-4-yl)-7-[[6-(1-methylpyrazol-4-yl)-3-pyridyl]methyl]thieno[3,2-b]pyridine-5-carboxamide] were 7.19 and 58.4%.
Consider `CO[C@@H]1CCCC[C@H]1NC(=O)c1cc(Cc2ccc(C)nc2)c2scc(C)c2n1` [Compound 106, N-[(1R,2R)-2-methoxycyclohexyl]-3-methyl-7-[(6-methyl-3-pyridyl)methyl]thieno[3,2-b]pyridine-5-carboxamide], for which, under setting [1], the pEC50 was 5.66. Further, under “Table 2, human M1”, the Emax was found to be 82.1%.
